Assay results published in ChEMBL document CHEMBL5620353, “Novel antifungal triazoles with alkynyl-methoxyl side chains: Design, synthesis, and biological activity evaluation” (Eur J Med Chem, 2023).
In brackets after ≈: the same amount, converted by molar mass.

Key:
Format in all cases: functional
Candida albicans [1] = test: Antifungal activity against Candida albicans SC5314 assessed as inhibition of fungal growth incubated for 48 hrs by microbroth dilution method
Candida albicans [2] = test: Antifungal activity against Candida albicans 10231 assessed as inhibition of fungal growth incubated for 48 hrs by microbroth dilution method
Nakaseomyces glabratus [3] = test: Antifungal activity against Candida glabrata 537 assessed as inhibition of fungal growth incubated for 48 hrs by microbroth dilution method
Candida parapsilosis = test: Antifungal activity against Candida parapsilosis 22019 assessed as inhibition of fungal growth incubated for 48 hrs by microbroth dilution method; conditions: Lodderomyces parapsilosis
Pichia kudriavzevii = test: Antifungal activity against Candida krusei 4996 assessed as inhibition of fungal growth incubated for 48 hrs by microbroth dilution method
Candida tropicalis = test: Antifungal activity against Candida tropicalis 8915 assessed as inhibition of fungal growth incubated for 48 hrs by microbroth dilution method
Cryptococcus neoformans = test: Antifungal activity against Cryptococcus neoformans 32,609 assessed as inhibition of fungal growth incubated for 72 hrs by microbroth dilution method
Aspergillus fumigatus = test: Antifungal activity against Aspergillus fumigatus 7544 assessed as inhibition of fungal growth incubated for 72 hrs by microbroth dilution method
Nakaseomyces glabratus [4] = test: Potency index, ratio of fluconazole MIC to test compound MIC for antifungal activity against Candida glabrata 537 assessed as inhibition of fungal growth incubated for 48 hrs by microbroth dilution method
Saccharomyces cerevisiae [5] = test: Antifungal activity against recombinant Saccharomyces cerevisiae Y525 overexpressing CaMdr1 assessed as inhibition of fungal growth incubated for 48 hrs by microbroth dilution method
Saccharomyces cerevisiae [6] = test: Antifungal activity against recombinant Saccharomyces cerevisiae Y570 overexpressing CaCdr1 assessed as inhibition of fungal growth incubated for 48 hrs by microbroth dilution method
Saccharomyces cerevisiae [7] = test: Antifungal activity against recombinant Saccharomyces cerevisiae Y2411 overexpressing ScErg11 assessed as inhibition of fungal growth incubated for 48 hrs by microbroth dilution method
Saccharomyces cerevisiae [8] = test: Antifungal activity against recombinant Saccharomyces cerevisiae Y2300 overexpressing ScErg11 assessed as inhibition of fungal growth incubated for 48 hrs by microbroth dilution method
Saccharomyces cerevisiae [9] = test: Antifungal activity against recombinant Saccharomyces cerevisiae Y2301 overexpressing ScErg11 Y140F assessed as inhibition of fungal growth incubated for 48 hrs by microbroth dilution method
Saccharomyces cerevisiae [10] = test: Antifungal activity against recombinant Saccharomyces cerevisiae Y2513 overexpressing ScErg11 Y140H assessed as inhibition of fungal growth incubated for 48 hrs by microbroth dilution method
Saccharomyces cerevisiae [11] = test: Antifungal activity against recombinant Saccharomyces cerevisiae Y2374 overexpressing CgErg11 assessed as inhibition of fungal growth incubated for 48 hrs by microbroth dilution method
Saccharomyces cerevisiae [12] = test: Antifungal activity against recombinant Saccharomyces cerevisiae Y2462 overexpressing ScErg11 ScNcp1 assessed as inhibition of fungal growth incubated for 48 hrs by microbroth dilution method
Saccharomyces cerevisiae [13] = test: Antifungal activity against recombinant Saccharomyces cerevisiae Y2459 overexpressing CaErg11 CaCpr assessed as inhibition of fungal growth incubated for 48 hrs by microbroth dilution method
Saccharomyces cerevisiae [14] = test: Antifungal activity against recombinant Saccharomyces cerevisiae Y2721 overexpressing CpErg11 CpCpr assessed as inhibition of fungal growth incubated for 48 hrs by microbroth dilution method
Saccharomyces cerevisiae [15] = test: Antifungal activity against recombinant Saccharomyces cerevisiae Y2716 overexpressing CpErg11 Y132F CpCpr assessed as inhibition of fungal growth incubated for 48 hrs by microbroth dilution method

Structure (SMILES) | MIC (Candida albicans [1]) [µg/mL] | MIC (Candida albicans [2]) [µg/mL] | MIC (Nakaseomyces glabratus [3]) [µg/mL] | MIC (Candida parapsilosis) [µg/mL] | MIC (Pichia kudriavzevii) [µg/mL] | MIC (Candida tropicalis) [µg/mL] | MIC (Cryptococcus neoformans) [µg/mL] | MIC (Aspergillus fumigatus) [µg/mL] | Ratio (Nakaseomyces glabratus [4]) | MIC (Saccharomyces cerevisiae [5]) [µg/mL] | MIC (Saccharomyces cerevisiae [6]) [µg/mL] | MIC (Saccharomyces cerevisiae [7]) [µg/mL] | MIC (Saccharomyces cerevisiae [8]) [µg/mL] | MIC (Saccharomyces cerevisiae [9]) [µg/mL] | MIC (Saccharomyces cerevisiae [10]) [µg/mL] | MIC (Saccharomyces cerevisiae [11]) [µg/mL] | MIC (Saccharomyces cerevisiae [12]) [µg/mL] | MIC (Saccharomyces cerevisiae [13]) [µg/mL] | MIC (Saccharomyces cerevisiae [14]) [µg/mL] | MIC (Saccharomyces cerevisiae [15]) [µg/mL]
C[C@@H](OCC#Cc1ccc(C(F)(F)F)cc1)[C@](O)(Cn1cncn1)c1ccc(F)cc1F | 4 (≈ 8.86 µM) | 32 (≈ 70.9 µM) | 1 (≈ 2.22 µM) | 16 (≈ 35.4 µM) | 64 (≈ 142 µM) | 64 (≈ 142 µM) | 8 (≈ 17.7 µM) | 16 (≈ 35.4 µM) |  |  |  |  |  |  |  |  |  |  |  | 
C[C@@H](OCC#Cc1cc(Cl)ccc1Cl)[C@](O)(Cn1cncn1)c1ccc(F)cc1F | 0.25 (≈ 0.553 µM) | > 64 | ≤ 0.125 | 4 (≈ 8.84 µM) | 32 (≈ 70.8 µM) | > 64 | 2 (≈ 4.42 µM) | 16 (≈ 35.4 µM) | >=8 |  |  |  |  |  |  |  |  |  |  | 
C[C@@H](OCC#Cc1ccccc1)[C@](O)(Cn1cncn1)c1ccc(F)cc1F | ≤ 0.125 | 8 (≈ 20.9 µM) | ≤ 0.125 | 0.5 (≈ 1.3 µM) | 8 (≈ 20.9 µM) | 32 (≈ 83.5 µM) | 0.5 (≈ 1.3 µM) | 4 (≈ 10.4 µM) | >=8 |  |  |  |  |  |  |  |  |  |  | 
CC[C@@H]([C@H](C)O)n1ncn(-c2ccc(N3CCN(c4ccc(OC[C@@H]5CO[C@@](Cn6cncn6)(c6ccc(F)cc6F)C5)cc4)CC3)cc2)c1=O [POSACONAZOLE] |  |  |  |  |  |  |  |  |  | 1 | 16 | 0.5 | 2 | 2 | 1 | 1 | 2 | 2 | 1 | 1
C[C@@H](OCC#Cc1ccccc1F)[C@](O)(Cn1cncn1)c1ccc(F)cc1F | ≤ 0.125 | 8 (≈ 19.9 µM) | ≤ 0.125 | 2 (≈ 4.98 µM) | 8 (≈ 19.9 µM) | 64 (≈ 159 µM) | 0.5 (≈ 1.25 µM) | 4 (≈ 9.97 µM) | >=8 |  |  |  |  |  |  |  |  |  |  | 
C[C@@H](OCC#Cc1c(F)cc(F)cc1F)[C@](O)(Cn1cncn1)c1ccc(F)cc1F | ≤ 0.125 | > 64 | ≤ 0.125 | 2 (≈ 4.57 µM) | 8 (≈ 18.3 µM) | 64 (≈ 146 µM) | 0.5 (≈ 1.14 µM) | 4 (≈ 9.15 µM) | >=8 |  |  |  |  |  |  |  |  |  |  | 
COc1ccc(C#CCO[C@H](C)[C@](O)(Cn2cncn2)c2ccc(F)cc2F)cc1 | ≤ 0.125 | 16 (≈ 38.7 µM) | 0.25 (≈ 0.605 µM) | 4 (≈ 9.68 µM) | 32 (≈ 77.4 µM) | 16 (≈ 38.7 µM) | 2 (≈ 4.84 µM) | 4 (≈ 9.68 µM) |  |  |  |  |  |  |  |  |  |  |  | 

Continued, in another order:

MIC (Candida albicans [1]) [µg/mL] | MIC (Candida albicans [2]) [µg/mL] | MIC (Nakaseomyces glabratus [3]) [µg/mL] | MIC (Candida parapsilosis) [µg/mL] | MIC (Pichia kudriavzevii) [µg/mL] | MIC (Candida tropicalis) [µg/mL] | MIC (Cryptococcus neoformans) [µg/mL] | MIC (Aspergillus fumigatus) [µg/mL] | Structure (SMILES) | Ratio (Nakaseomyces glabratus [4]) | MIC (Saccharomyces cerevisiae [5]) [µg/mL] | MIC (Saccharomyces cerevisiae [6]) [µg/mL] | MIC (Saccharomyces cerevisiae [7]) [µg/mL] | MIC (Saccharomyces cerevisiae [8]) [µg/mL] | MIC (Saccharomyces cerevisiae [9]) [µg/mL] | MIC (Saccharomyces cerevisiae [10]) [µg/mL] | MIC (Saccharomyces cerevisiae [11]) [µg/mL] | MIC (Saccharomyces cerevisiae [12]) [µg/mL] | MIC (Saccharomyces cerevisiae [13]) [µg/mL] | MIC (Saccharomyces cerevisiae [14]) [µg/mL] | MIC (Saccharomyces cerevisiae [15]) [µg/mL]
≤ 0.125 | 32 (≈ 70.8 µM) | 1 (≈ 2.21 µM) | 8 (≈ 17.7 µM) | 64 (≈ 142 µM) | 32 (≈ 70.8 µM) | 4 (≈ 8.84 µM) | 4 (≈ 8.84 µM) | C[C@@H](OCC#Cc1cccc(Cl)c1Cl)[C@](O)(Cn1cncn1)c1ccc(F)cc1F |  |  |  |  |  |  |  |  |  |  |  | 
0.5 (≈ 1.2 µM) | 32 (≈ 76.6 µM) | 0.5 (≈ 1.2 µM) | 2 (≈ 4.79 µM) | 32 (≈ 76.6 µM) | 32 (≈ 76.6 µM) | 2 (≈ 4.79 µM) | 2 (≈ 4.79 µM) | C[C@@H](OCC#Cc1cccc(Cl)c1)[C@](O)(Cn1cncn1)c1ccc(F)cc1F |  |  |  |  |  |  |  |  |  |  |  | 
≤ 0.125 | 32 (≈ 83.2 µM) | ≤ 0.125 | 0.5 (≈ 1.3 µM) | 16 (≈ 41.6 µM) | > 64 | 0.5 (≈ 1.3 µM) | 8 (≈ 20.8 µM) | C[C@@H](OCC#Cc1ccccn1)[C@](O)(Cn1cncn1)c1ccc(F)cc1F | >=8 |  |  |  |  |  |  |  |  |  |  | 
≤ 0.125 | 16 (≈ 40.3 µM) | ≤ 0.125 | 4 (≈ 10.1 µM) | 32 (≈ 80.5 µM) | 16 (≈ 40.3 µM) | 2 (≈ 5.03 µM) | 4 (≈ 10.1 µM) | Cc1ccc(C#CCO[C@H](C)[C@](O)(Cn2cncn2)c2ccc(F)cc2F)cc1 | >=8 |  |  |  |  |  |  |  |  |  |  | 
1 (≈ 2.05 µM) | > 64 | ≤ 0.125 | 2 (≈ 4.11 µM) | 16 (≈ 32.9 µM) | 64 (≈ 131 µM) | 0.5 (≈ 1.03 µM) | 2 (≈ 4.11 µM) | C[C@@H](OCC#Cc1c(Cl)cc(Cl)cc1Cl)[C@](O)(Cn1cncn1)c1ccc(F)cc1F | >=8 |  |  |  |  |  |  |  |  |  |  | 
0.25 (≈ 0.598 µM) | 16 (≈ 38.3 µM) | 0.25 (≈ 0.598 µM) | 1 (≈ 2.39 µM) | 8 (≈ 19.1 µM) | 64 (≈ 153 µM) | 2 (≈ 4.79 µM) | 4 (≈ 9.57 µM) | C[C@@H](OCC#Cc1ccccc1Cl)[C@](O)(Cn1cncn1)c1ccc(F)cc1F |  |  |  |  |  |  |  |  |  |  |  | 
